From patent US10681909B2, “Herbicidal triazoles” (FMC Corporation, priority 2014, dated 2020)

Assays:
[1] = test system: barnyardgrass; assay: Test A preemergence; type: in vivo, Echinochloa crus-galli; conditions: 0 to 100 scale (0 no effect, 100 complete control)
Source text: (§1) Seeds of plant species selected from barnyardgrass (Echinochloa crus-galli), crabgrass, large (large crabgrass, Digitaria sanguinalis), kochia (Kochia scoparia), ragweed (common ragweed, Ambrosia elatior), foxtail, giant (giant foxtail, Setaria faberii), morningglory (Ipomoea spp.), pigweed (Amaranthus retroflexus), velvetleaf (Abutilon theophrasti), ryegrass, Italian (Italian ryegrass, Lolium multiflorum), wheat (Triticum aestivum), and corn (Zea mays) were planted into a blend of loam soil and sand and treated preemergence with a directed soil spray using test chemicals formulated in a non-phytotoxic solvent mixture which included a surfactant. At the same time, plants selected from these crop and weed species and also blackgrass (Alopecurus myosuroides), and galium (catchweed bedstraw, Galium aparine), were planted in pots containing the same blend of loam soil and sand and treated with postemergence applications of test chemicals formulated in the same manner. Plants ranged in height from 2 to 10 cm and were in the one- to two-leaf stage for the postemergence treatment. […] A dash (-) response means no test result.

[2] = test system: kochia; assay: Test A preemergence; type: in vivo, Kochia scoparia; conditions: 0 to 100 scale (0 no effect, 100 complete control)
Source text: (§2) Seeds of plant species selected from barnyardgrass (Echinochloa crus-galli), crabgrass, large (large crabgrass, Digitaria sanguinalis), kochia (Kochia scoparia), ragweed (common ragweed, Ambrosia elatior), foxtail, giant (giant foxtail, Setaria faberii), morningglory (Ipomoea spp.), pigweed (Amaranthus retroflexus), velvetleaf (Abutilon theophrasti), ryegrass, Italian (Italian ryegrass, Lolium multiflorum), wheat (Triticum aestivum), and corn (Zea mays) were planted into a blend of loam soil and sand and treated preemergence with a directed soil spray using test chemicals formulated in a non-phytotoxic solvent mixture which included a surfactant.
(§3) At the same time, plants selected from these crop and weed species and also blackgrass (Alopecurus myosuroides), and galium (catchweed bedstraw, Galium aparine), were planted in pots containing the same blend of loam soil and sand and treated with postemergence applications of test chemicals formulated in the same manner. Plants ranged in height from 2 to 10 cm and were in the one- to two-leaf stage for the postemergence treatment. Treated plants and untreated controls were maintained in a greenhouse for approximately 10 d, after which time all treated plants were compared to untreated controls and visually evaluated for injury. Plant response ratings, summarized in Table A, are based on a 0 to 100 scale where 0 is no effect and 100 is complete control. A dash (-) response means no test result.

[3] = test system: ragweed; assay: Test A preemergence; type: in vivo, Ambrosia elatior; conditions: 0 to 100 scale (0 no effect, 100 complete control)
Source text: as §2, §3

[4] = test system: foxtail, giant; assay: Test A preemergence; type: in vivo, Setaria faberii; conditions: 0 to 100 scale (0 no effect, 100 complete control)
Source text: as §1

[5] = test system: pigweed; assay: Test A preemergence; type: in vivo, Amaranthus retroflexus; conditions: 0 to 100 scale (0 no effect, 100 complete control)
Source text: as §1

[6] = test system: ryegrass, Italian; assay: Test A preemergence; type: in vivo, Lolium multiflorum; conditions: 0 to 100 scale (0 no effect, 100 complete control)
Source text: as §2, §3

[7] = test system: barnyardgrass; assay: Test A postemergence; type: in vivo, Echinochloa crus-galli; conditions: 0 to 100 scale (0 no effect, 100 complete control), approx. 10 d
Source text: as §1

[8] = test system: kochia; assay: Test A postemergence; type: in vivo, Kochia scoparia; conditions: 0 to 100 scale (0 no effect, 100 complete control), approx. 10 d
Source text: as §2, §3

[9] = test system: ragweed; assay: Test A postemergence; type: in vivo, Ambrosia elatior; conditions: 0 to 100 scale (0 no effect, 100 complete control), approx. 10 d
Source text: as §2, §3

[10] = test system: foxtail, giant; assay: Test A postemergence; type: in vivo, Setaria faberii; conditions: 0 to 100 scale (0 no effect, 100 complete control), approx. 10 d
Source text: as §1

[11] = test system: pigweed; assay: Test A postemergence; type: in vivo, Amaranthus retroflexus; conditions: 0 to 100 scale (0 no effect, 100 complete control), approx. 10 d
Source text: as §1

[12] = test system: ryegrass, Italian; assay: Test A postemergence; type: in vivo, Lolium multiflorum; conditions: 0 to 100 scale (0 no effect, 100 complete control), approx. 10 d
Source text: as §2, §3

[13] = test system: wheat; assay: Test A postemergence; type: in vivo, Triticum aestivum; conditions: 0 to 100 scale (0 no effect, 100 complete control), approx. 10 d
Source text: as §1

[14] = test system: corn; assay: Test A postemergence; type: in vivo, Zea mays; conditions: 0 to 100 scale (0 no effect, 100 complete control), approx. 10 d
Source text: as §1

[15] = test system: blackgrass; assay: Test A postemergence; type: in vivo, Alopecurus myosuroides; conditions: 0 to 100 scale (0 no effect, 100 complete control), approx. 10 d
Source text: as §2, §3

[16] = test system: galium; assay: Test A postemergence; type: in vivo, Galium aparine; conditions: 0 to 100 scale (0 no effect, 100 complete control), approx. 10 d
Source text: as §2, §3

Row | SMILES | Plant response rating, Barnyardgrass ([1]; 31 g ai/ha) | Plant response rating, Barnyardgrass ([1]; 125 g ai/ha) | Plant response rating, Kochia ([2]; 31 g ai/ha) | Plant response rating, Kochia ([2]; 125 g ai/ha) | Plant response rating, Ragweed ([3]; 31 g ai/ha) | Plant response rating, Ragweed ([3]; 125 g ai/ha) | Plant response rating, Foxtail, Giant ([4]; 31 g ai/ha) | Plant response rating, Foxtail, Giant ([4]; 125 g ai/ha) | Plant response rating, Pigweed ([5]; 31 g ai/ha) | Plant response rating, Pigweed ([5]; 125 g ai/ha) | Plant response rating, Ryegrass, Italian ([6]; 31 g ai/ha) | Plant response rating, Ryegrass, Italian ([6]; 125 g ai/ha) | Plant response rating, Barnyardgrass ([7]; 31 g ai/ha) | Plant response rating, Barnyardgrass ([7]; 125 g ai/ha) | Plant response rating, Kochia ([8]; 31 g ai/ha) | Plant response rating, Kochia ([8]; 125 g ai/ha) | Plant response rating, Ragweed ([9]; 31 g ai/ha) | Plant response rating, Ragweed ([9]; 125 g ai/ha) | Plant response rating, Foxtail, Giant ([10]; 31 g ai/ha) | Plant response rating, Foxtail, Giant ([10]; 125 g ai/ha) | also measured
1 | Cc1nc(-c2ccc(Br)cc2)nn1Cc1ccnc(C(F)(F)F)c1 [Compound 36] | 0 | 60 | 60 | 90 | 0 | 20 | 20 | 90 | 90 | 90 | 0 | 10 | 0 | 20 | 70 | 90 | 0 | 30 | 20 | 70 | Plant response rating, Pigweed ([11]; 31 g ai/ha): 90; Plant response rating, Pigweed ([11]; 125 g ai/ha): 100; Plant response rating, Ryegrass, Italian ([12]; 31 g ai/ha): 0; Plant response rating, Ryegrass, Italian ([12]; 125 g ai/ha): 0; Plant response rating, Wheat ([13]; 31 g ai/ha): 0; Plant response rating, Wheat ([13]; 125 g ai/ha): 10; Plant response rating, Corn ([14]; 31 g ai/ha): 20; Plant response rating, Corn ([14]; 125 g ai/ha): 30; Plant response rating, Blackgrass ([15]; 31 g ai/ha): 10; Plant response rating, Blackgrass ([15]; 125 g ai/ha): 30; Plant response rating, Galium ([16]; 31 g ai/ha): 50; Plant response rating, Galium ([16]; 125 g ai/ha): 90
2 | COc1nc(-c2ccc(OC(F)(F)F)cc2)nn1Cc1ccnc(C(F)(F)F)c1 [Compound 40] | 0 | 0 | 0 | 0 | 0 | 0 | 0 | 0 | 0 | 30 | 0 | 0 | 0 | 0 | 0 | 0 | 0 | 0 | 0 | 0 | Plant response rating, Pigweed ([11]; 31 g ai/ha): 30; Plant response rating, Pigweed ([11]; 125 g ai/ha): 70; Plant response rating, Ryegrass, Italian ([12]; 31 g ai/ha): 0; Plant response rating, Ryegrass, Italian ([12]; 125 g ai/ha): 0; Plant response rating, Wheat ([13]; 31 g ai/ha): 0; Plant response rating, Wheat ([13]; 125 g ai/ha): 0; Plant response rating, Corn ([14]; 31 g ai/ha): 0; Plant response rating, Corn ([14]; 125 g ai/ha): 20; Plant response rating, Blackgrass ([15]; 31 g ai/ha): 0; Plant response rating, Blackgrass ([15]; 125 g ai/ha): 0; Plant response rating, Galium ([16]; 31 g ai/ha): 20; Plant response rating, Galium ([16]; 125 g ai/ha): 30
3 | CCCOc1nc(-c2ccc(C(F)(F)F)cc2)nn1Cc1ccnc(C(F)(F)F)c1 [Compound 41] | 30 | 40 | 30 | 60 | 20 | 30 | 70 | 90 | 90 | 90 | 20 | 40 | 30 | 40 | 70 | 90 | 50 | 70 | 30 | 50 | Plant response rating, Pigweed ([11]; 31 g ai/ha): 80; Plant response rating, Pigweed ([11]; 125 g ai/ha): 90; Plant response rating, Ryegrass, Italian ([12]; 31 g ai/ha): 20; Plant response rating, Ryegrass, Italian ([12]; 125 g ai/ha): 30; Plant response rating, Wheat ([13]; 31 g ai/ha): 0; Plant response rating, Wheat ([13]; 125 g ai/ha): 20; Plant response rating, Corn ([14]; 31 g ai/ha): 20; Plant response rating, Corn ([14]; 125 g ai/ha): 30; Plant response rating, Blackgrass ([15]; 31 g ai/ha): 20; Plant response rating, Blackgrass ([15]; 125 g ai/ha): 30; Plant response rating, Galium ([16]; 31 g ai/ha): 60; Plant response rating, Galium ([16]; 125 g ai/ha): 90
